The target of assay [1] is Epidermal growth factor receptor (Homo sapiens, UniProt P00533). Kind of assay: Inhibitory Activity for EGFR (WT) Kinase. On the procedure:
A 50 ng/μL EGFR (WT, Carna) stock solution was diluted with a kinase buffer (50 mM HEPES, 10 mM MgCl2, 2 mM DTT, 1 mM EGTA, 0.01% Tween 20), and 6 μL of 1.67× working solution at 0.005 ng/μL (final concentration: 0.003 ng/μL) was added to each well. Different compounds dissolved in DMSO were added to the wells using a nanoliter pipettor, resulting in the final concentrations of the compounds of 100 nM to 0.0244 nM (4-fold gradient for 7 concentrations in total), and blank control wells (without enzyme) and negative control wells (with enzyme, plus vehicle DMSO) were set, 2 replicate wells for each concentration. After enzyme was reacted with the compound or vehicle for 30 min, 5×ATP at 25 μM (final concentration: 5 μM, Sigma) prepared with a kinase buffer was mixed with 5× substrate at 0.5 μM (final concentration: 0.1 μM, ULight-poly GT, PerkinElmer) at a ratio of 1:1 (v:v), and the mixture was added to each well at 4 μL/well. After being sealed with a film, the plate was incubated at room temperature for 2 h, and then 5 μL of 4×EDTA at 40 mM (final concentration: 10 mM) was added to each well. After the plate was incubated for 5 min at room temperature, 5 μL of 4× detection reagent at 8 nM (final concentration: 2 nM, Eu-anti-phospho-tyrosine antibody, PerkinElmer) was added to each well.

The target of assay [2] is Epidermal growth factor receptor [T790M,L858R] (Homo sapiens, UniProt P00533, L858R/T790M). Kind of assay: Inhibitory Activity for EGFR (L858R/T790M) Kinase. Summed up:
(§1)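 Recombinant EGFR L858R/T790M (0.0025 ng/μL final) pre-incubated 30 min with compound (10–0.0024 nM, 7 points) in HEPES/MgCl2/DTT buffer. Reaction run 2 h at room temperature with 5 μM ATP and 0.1 μM ULight-poly GT, then stopped with EDTA. Eu-anti-phosphotyrosine TR-FRET read; IC50 from four-parameter fit.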

Assay [3] concerns the target Epidermal growth factor receptor [T790M,C797S,L858R] (UniProt P00533, C797S/L858R/T790M). In words: Inhibitory Activity for EGFR (L858R/T790M/C797S) Kinase. Summed up: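 Triple-mutant enzyme (0.001 ng/μL final) preincubated 30 min with compound (10 nM–0.0024 nM), then reacted 2 h at room temperature with 5 μM ATP and 0.1 μM ULight-poly GT. Stopped with EDTA, detected by Eu-anti-phospho-tyrosine TR-FRET; IC50 by four-parameter fit.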

For assay [4], the target named is Epidermal growth factor receptor (EGFR)(L858R)(T790M) (Homo sapiens, UniProt P00533, L858R/T790M). Kind of assay: Inhibitory Activity for EGFR (L858R/T790M) Kinase. The method in brief: as §1

SMILES strings stand for the structures.

Epidermal growth factor receptor (EGFR)(L858R)(T790M), sequence (P00533 25-1210 T790M/L858R limits assumed): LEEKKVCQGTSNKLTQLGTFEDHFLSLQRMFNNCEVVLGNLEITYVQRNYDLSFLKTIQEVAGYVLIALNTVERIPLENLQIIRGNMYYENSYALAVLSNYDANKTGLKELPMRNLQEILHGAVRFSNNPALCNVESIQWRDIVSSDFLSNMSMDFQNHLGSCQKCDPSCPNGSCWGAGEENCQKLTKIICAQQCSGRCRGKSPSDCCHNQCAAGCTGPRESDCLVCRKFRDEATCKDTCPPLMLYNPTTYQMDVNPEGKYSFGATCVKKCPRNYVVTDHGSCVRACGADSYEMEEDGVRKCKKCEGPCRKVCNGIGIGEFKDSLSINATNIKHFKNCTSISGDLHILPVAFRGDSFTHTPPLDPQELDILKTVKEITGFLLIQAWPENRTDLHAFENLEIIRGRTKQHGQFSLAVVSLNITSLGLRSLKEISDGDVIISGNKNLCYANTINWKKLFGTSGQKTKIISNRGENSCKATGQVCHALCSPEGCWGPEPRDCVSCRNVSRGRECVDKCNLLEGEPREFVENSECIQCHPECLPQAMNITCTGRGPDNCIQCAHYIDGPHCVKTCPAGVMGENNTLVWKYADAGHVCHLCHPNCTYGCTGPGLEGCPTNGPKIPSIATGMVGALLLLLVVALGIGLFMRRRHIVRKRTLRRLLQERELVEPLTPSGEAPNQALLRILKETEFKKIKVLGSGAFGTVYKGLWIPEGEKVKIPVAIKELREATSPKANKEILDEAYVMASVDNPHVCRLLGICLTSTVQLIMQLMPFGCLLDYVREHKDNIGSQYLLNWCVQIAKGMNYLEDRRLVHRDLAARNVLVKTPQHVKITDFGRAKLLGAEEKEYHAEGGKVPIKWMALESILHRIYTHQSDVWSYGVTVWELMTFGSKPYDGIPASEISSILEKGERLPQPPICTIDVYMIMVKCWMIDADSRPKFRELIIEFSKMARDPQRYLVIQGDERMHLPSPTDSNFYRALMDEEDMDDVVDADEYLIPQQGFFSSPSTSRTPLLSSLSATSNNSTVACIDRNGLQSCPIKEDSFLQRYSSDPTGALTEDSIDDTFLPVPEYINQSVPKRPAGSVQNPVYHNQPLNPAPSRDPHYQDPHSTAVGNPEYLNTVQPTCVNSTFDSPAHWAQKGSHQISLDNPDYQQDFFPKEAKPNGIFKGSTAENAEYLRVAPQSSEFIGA
Epidermal growth factor receptor [T790M,L858R], sequence (P00533 25-1210 T790M/L858R limits assumed): as above
Epidermal growth factor receptor, sequence (P00533 whole entry): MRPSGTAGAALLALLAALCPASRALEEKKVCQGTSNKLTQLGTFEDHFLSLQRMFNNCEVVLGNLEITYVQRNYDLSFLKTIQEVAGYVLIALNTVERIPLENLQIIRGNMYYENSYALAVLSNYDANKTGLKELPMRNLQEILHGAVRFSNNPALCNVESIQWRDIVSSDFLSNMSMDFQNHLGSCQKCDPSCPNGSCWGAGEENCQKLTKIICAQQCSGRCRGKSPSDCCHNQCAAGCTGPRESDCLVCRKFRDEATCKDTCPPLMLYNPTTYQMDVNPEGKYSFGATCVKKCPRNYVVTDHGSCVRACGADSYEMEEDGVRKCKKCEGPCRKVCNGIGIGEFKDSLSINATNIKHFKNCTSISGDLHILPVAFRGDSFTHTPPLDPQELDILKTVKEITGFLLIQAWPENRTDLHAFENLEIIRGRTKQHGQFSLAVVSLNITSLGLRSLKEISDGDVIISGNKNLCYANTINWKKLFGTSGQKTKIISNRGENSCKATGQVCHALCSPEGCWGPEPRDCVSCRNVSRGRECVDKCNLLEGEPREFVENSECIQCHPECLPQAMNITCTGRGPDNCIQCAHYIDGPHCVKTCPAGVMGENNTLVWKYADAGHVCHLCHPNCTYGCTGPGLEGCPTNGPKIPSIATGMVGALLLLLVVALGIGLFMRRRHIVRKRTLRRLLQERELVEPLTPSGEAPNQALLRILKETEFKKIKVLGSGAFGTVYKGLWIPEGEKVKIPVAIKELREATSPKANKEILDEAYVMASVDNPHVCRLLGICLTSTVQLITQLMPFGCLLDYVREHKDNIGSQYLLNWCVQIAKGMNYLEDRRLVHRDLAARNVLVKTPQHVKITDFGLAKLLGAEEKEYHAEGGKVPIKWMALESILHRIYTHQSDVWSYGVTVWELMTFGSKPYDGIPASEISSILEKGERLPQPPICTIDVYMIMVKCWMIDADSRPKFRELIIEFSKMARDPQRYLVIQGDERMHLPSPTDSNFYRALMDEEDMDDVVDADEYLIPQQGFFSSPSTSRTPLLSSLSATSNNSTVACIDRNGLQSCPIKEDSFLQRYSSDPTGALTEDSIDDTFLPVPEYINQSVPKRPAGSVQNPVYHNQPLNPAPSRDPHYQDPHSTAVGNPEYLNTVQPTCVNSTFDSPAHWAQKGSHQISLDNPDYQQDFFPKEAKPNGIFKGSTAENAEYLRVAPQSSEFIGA
Epidermal growth factor receptor [T790M,C797S,L858R], sequence (P00533 25-1210 T790M/C797S/L858R limits assumed): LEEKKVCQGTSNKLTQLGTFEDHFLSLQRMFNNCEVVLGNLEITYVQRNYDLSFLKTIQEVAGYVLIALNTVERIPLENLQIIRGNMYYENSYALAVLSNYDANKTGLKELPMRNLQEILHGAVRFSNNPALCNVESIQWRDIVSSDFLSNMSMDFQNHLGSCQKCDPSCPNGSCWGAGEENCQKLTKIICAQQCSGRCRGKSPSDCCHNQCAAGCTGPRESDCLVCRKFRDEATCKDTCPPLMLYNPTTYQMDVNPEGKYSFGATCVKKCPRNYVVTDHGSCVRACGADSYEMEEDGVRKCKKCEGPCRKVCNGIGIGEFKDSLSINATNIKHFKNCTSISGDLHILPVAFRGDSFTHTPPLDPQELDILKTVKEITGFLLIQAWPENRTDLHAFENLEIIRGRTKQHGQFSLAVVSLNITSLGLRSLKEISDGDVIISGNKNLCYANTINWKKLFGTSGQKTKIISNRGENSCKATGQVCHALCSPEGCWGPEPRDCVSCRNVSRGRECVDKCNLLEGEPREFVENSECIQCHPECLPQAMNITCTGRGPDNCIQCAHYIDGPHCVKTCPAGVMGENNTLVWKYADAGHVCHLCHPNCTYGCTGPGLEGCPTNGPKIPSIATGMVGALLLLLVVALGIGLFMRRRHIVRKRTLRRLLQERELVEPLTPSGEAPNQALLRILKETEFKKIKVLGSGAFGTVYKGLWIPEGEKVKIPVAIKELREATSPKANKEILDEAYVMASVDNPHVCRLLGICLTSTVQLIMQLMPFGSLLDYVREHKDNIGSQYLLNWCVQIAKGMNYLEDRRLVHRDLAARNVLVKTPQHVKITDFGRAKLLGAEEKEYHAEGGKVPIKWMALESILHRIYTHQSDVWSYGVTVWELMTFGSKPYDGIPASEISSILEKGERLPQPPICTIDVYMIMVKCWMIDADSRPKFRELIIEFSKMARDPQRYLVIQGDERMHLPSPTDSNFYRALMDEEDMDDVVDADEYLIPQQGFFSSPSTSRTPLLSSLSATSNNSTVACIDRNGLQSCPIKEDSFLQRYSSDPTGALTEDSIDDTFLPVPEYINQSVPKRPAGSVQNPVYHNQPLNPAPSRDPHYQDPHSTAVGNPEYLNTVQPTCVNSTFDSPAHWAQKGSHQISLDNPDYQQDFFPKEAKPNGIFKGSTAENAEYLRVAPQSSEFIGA

Consider `CCN1CCC(Nc2ccc3c(c2)N/C2=N\C(=O)c4cc(C)nc(c4)-c4cnn(C)c4OCCC[C@@H](C4CC4)CN23)CC1` [US20250034165, Example 48], for which the 50% inhibitory concentration (IC50) in assay [1] was 0.51 nM; in assay [2], 0.023 nM.

Take `[2H]C([2H])([2H])N(C[C@H](C)Nc1ccc2c(c1)N/C1=N/C(=O)c3cc(C)nc(c3)-c3cnn(C)c3OCCC[C@@H](C3CC3)CN12)C([2H])([2H])[2H]` [US20250034165, Example 124]: the IC50 was 0.16 nM in assay [3] and 0.22 nM in assay [2].

Regarding `CNCCCNc1ccc2c(c1)N/C1=N\C(=O)c3cc(C)nc(c3)-c3cnn(C)c3OCCC[C@@H](C3CC3)CN12` [US20250034165, Example 49], the half-maximal inhibitory concentration (IC50) is 0.051 nM in assay [3], 2.2 nM in assay [1] and 0.048 nM in assay [2].

Regarding `[2H]C([2H])([2H])N(C[C@@H](C)Nc1ccc2c(c1)N/C1=N/C(=O)c3cc(C)nc(c3)-c3cnn(C)c3OCCC[C@@H](C3CC3)CN12)C([2H])([2H])[2H]` [US20250034165, Example 146], the figures for the IC50 in assay [3] and in assay [2] were 0.75 nM and 0.52 nM, respectively.

Consider `Cc1cc2cc(n1)-c1cnn(C)c1OCCC[C@@H](C1CC1)CN1/C(=N/C2=O)Nc2cc(NCC3CCOCC3)ccc21` [US20250034165, Example 22], for which the values for the IC50 in assay [3], in assay [1] and in assay [4] were 0.052 nM, 2 nM and 0.04 nM, respectively.

Consider `Cc1cc2cc(n1)-c1cnn(C)c1OCCC[C@@H](C1CC1)CN1/C(=N/C2=O)Nc2cc(NC3CNC3)ccc21` [US20250034165, Example 32], for which the half-inhibitory concentration (IC50) in assay [3] worked out at 0.029 nM; in assay [1], 0.34 nM; in assay [4], 0.018 nM.

As to `Cc1cc2cc(n1)-c1cnn(C)c1OCCC[C@@H](C1CC1)CN1/C(=N/C2=O)Nc2cc(NCCCCN)ccc21` [US20250034165, Example 53], the IC50 in assay [3] turned out to be 0.014 nM; in assay [1], 0.72 nM; in assay [4], 0.011 nM.

With `Cc1cc2cc(n1)-c1cnn(C)c1OCCC[C@@H](C1CC1)CN1/C(=N/C2=O)Nc2ccc(N(C)CCN(C)C)cc21` [US20250034165, Example 45], the IC50 in assay [3] was determined as 0.024 nM; in assay [1], 0.95 nM; in assay [4], 0.02 nM.

As to `Cc1cc2cc(n1)-c1cnn(C3CC3)c1OCCC[C@@H](C)CN1/C(=N/C2=O)Nc2cc(NC3CCN(C)CC3)ccc21` [US20250034165, Example 12], the values for the IC50 in assay [3], in assay [1] and in assay [4] were 0.2 nM, 2.6 nM and 0.19 nM, respectively.

Take `Cc1cc2cc(n1)-c1cnn(C)c1OCCC[C@@H](C1CC1)CN1/C(=N/C2=O)Nc2cc(NC3CCN(C)CC3)ccc21` [US20250034165, Example 10]: the 50% inhibitory concentration (IC50) turned out to be 0.019 nM in assay [3], 0.12 nM in assay [1] and 0.02 nM in assay [4].

Turning to `[2H]C([2H])([2H])N(C[C@H](C)Nc1ccc2c(c1)N1C[C@H](C3CC3)CCCOc3c(cnn3C)-c3cc(cc(C)n3)C(=O)/N=C\1N2)C([2H])([2H])[2H]` [US20250034165, Example 123], the half-inhibitory concentration (IC50) in assay [2] was found to be 0.16 nM.

On to `CNCCCCNc1ccc2c(c1)N/C1=N/C(=O)c3cc(C)nc(c3)-c3cnn(C)c3OCCC[C@@H](C3CC3)CN12` [US20250034165, Example 52], for which the IC50 in assay [3] was 0.035 nM; in assay [1], 0.57 nM; in assay [2], 0.026 nM.

With `Cc1cc2cc(n1)-c1cnn(C)c1OCCC[C@@H](C1CC1)CN1/C(=N/C2=O)Nc2ccc(NCCCN(C)C)cc21` [US20250034165, Example 27], the IC50 in assay [3] came to 0.033 nM; in assay [1], 0.78 nM; in assay [4], 0.03 nM.

With `Cc1cc2cc(n1)-c1cnn(C)c1OCCC[C@@H](C1CC1)CN1/C(=N/C2=O)Nc2cc(NC(C)CN(C)C)ccc21` (stereo partly specified) [US20250034165, Example 62], the IC50 in assay [3] was determined as 0.016 nM; in assay [1], 0.77 nM; in assay [4] it was 0.031 nM.

Turning to `Cc1cc2cc(n1)-c1cnn(C3CC3)c1OCCC[C@@H](C)CN1/C(=N/C2=O)Nc2cc(N[C@@H]3CCOC3)ccc21` [US20250034165, Example 13], the IC50 is 0.095 nM in assay [3], 2 nM in assay [1] and 0.088 nM in assay [4].

For `Cc1cc2cc(n1)-c1cnn(C)c1OCCC[C@@H](C1CC1)CN1/C(=N/C2=O)Nc2ccc(NCCCN3CCOCC3)cc21` [US20250034165, Example 81], the IC50 was determined as 0.027 nM in assay [3], 0.68 nM in assay [1] and 0.044 nM in assay [4].

For `Cc1cc2cc(n1)-c1cnn(C)c1OCCC[C@@H](C1CC1)CN1/C(=N/C2=O)Nc2ccc(NCCN3CCCCC3)cc21` [US20250034165, Example 83], the figures for the half-maximal inhibitory concentration (IC50) in assay [3], in assay [1] and in assay [4] were 0.023 nM, 0.79 nM and 0.04 nM, respectively.

Regarding `Cc1cc2cc(n1)-c1cnn(C)c1OCCC[C@@H](C1CC1)CN1/C(=N/C2=O)Nc2cc(NCCN(C)C)ccc21` [US20250034165, Example 42], the IC50 worked out at 0.011 nM in assay [3], 0.68 nM in assay [1] and 0.013 nM in assay [4].

`Cc1cc2cc(n1)-c1cnn(C)c1OCCC[C@@H](C1CC1)CN1/C(=N/C2=O)Nc2cc(NC(C)C3COC3)ccc21` (stereo partly specified) [US20250034165, Example 37]: the IC50 in assay [3] was 0.037 nM; in assay [1], 1.4 nM; in assay [4], 0.027 nM.

Consider `Cc1cc2cc(n1)-c1cnn(C)c1OCCC[C@@H](C1CC1)CN1/C(=N/C2=O)Nc2ccc(OCCN(C)C)cc21` [US20250034165, Example 11], for which the IC50 was determined as 0.055 nM in assay [3], 1.9 nM in assay [1] and 0.044 nM in assay [4].

As for `Cc1cc2cc(n1)-c1cnn(C)c1OCCC[C@@H](C1CC1)CN1/C(=N/C2=O)Nc2cc(NCCN3CCCC3)ccc21` [US20250034165, Example 72], the figures for the IC50 in assay [3], in assay [1] and in assay [4] were 0.021 nM, 0.93 nM and 0.038 nM, respectively.

As to `Cc1cc2cc(n1)-c1cnn(C)c1OCCC[C@@H](C1CC1)CN1/C(=N/C2=O)Nc2ccc(NC3CCN(C(C)C)CC3)cc21` [US20250034165, Example 54], the IC50 in assay [3] turned out to be 0.025 nM; in assay [1], 0.39 nM; in assay [4] it was 0.017 nM.

Broadly, the IC50 is the concentration needed to halve the response being measured. A low value points to greater potency in that assay.

The record behind these values is BindingDB's records for patent US20250034165 (Chia Tai Tianqing Pharmaceutical Group, 2025).
